Patent US20140296212A1, “SUBSTITUTED PHENOXYPROPYLCYCLOAMINE DERIVATIVES AS HISTAMINE-3 (H3) RECEPTOR LIGANDS” (CEPHALON, INC., priority 2009, published 2014)
Structures can show the parent of a compound that is named as a salt.

Assays:
human H3 receptor = molecular target: T1, human H3 receptor (Homo sapiens, UniProt Q9Y5N1); test: Human H3 radioligand binding ([3H]-N-alpha-methylhistamine, SPA); conditions: membranes of CHO cells expressing human H3
T1 construct: expressed in transfected cells
T1 sequence (Q9Y5N1 whole entry): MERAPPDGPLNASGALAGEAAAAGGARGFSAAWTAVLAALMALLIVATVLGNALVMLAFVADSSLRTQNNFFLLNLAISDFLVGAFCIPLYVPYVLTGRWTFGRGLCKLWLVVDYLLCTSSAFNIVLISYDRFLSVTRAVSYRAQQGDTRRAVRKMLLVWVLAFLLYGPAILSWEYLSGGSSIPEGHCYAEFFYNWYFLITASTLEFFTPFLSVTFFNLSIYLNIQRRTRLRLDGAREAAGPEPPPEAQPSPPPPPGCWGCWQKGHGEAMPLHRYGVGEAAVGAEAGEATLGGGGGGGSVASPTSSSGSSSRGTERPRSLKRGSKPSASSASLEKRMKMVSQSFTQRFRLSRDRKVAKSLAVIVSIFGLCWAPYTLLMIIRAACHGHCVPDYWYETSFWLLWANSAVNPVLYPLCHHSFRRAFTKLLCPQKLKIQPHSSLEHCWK
Experimental: Cell pellets were resuspended in 5 mM Tris-HCl, pH 7.5 with 5 nM EDTA and a cocktail of protease inhibitors (Complete Protease Inhibitor Tablets, Roche Diagnostics). Cells were disrupted using a polytron cell homogenizer and the suspension was centrifuged at 1000×g for 10 minutes at 4° C. The pellet was discarded and the supernatant centrifuged at 40,000×g for 30 min at 4° C. This membrane pellet was washed in membrane buffer containing 50 mM Tris-HCl, pH 7.5 with 0.6 mM EDTA, 5 mM MgCl2 and protease inhibitors, recentrifuged as above and the final pellet resuspended in membrane buffer plus 250 mM sucrose and frozen at −80° C.
(§1) Membranes were resuspended in 50 mM Tris HCl (pH 7.4), 5 mM MgCl2, 0.1% BSA. The membrane suspensions (10 μg protein per well) were incubated in a 96 well microtiter plate with [^3H]-N-alpha-methylhistamine (approximately 1 nM final concentration), test compounds at various concentrations (0.01 nM-30 μM) and scintillation proximity beads (Perkin Elmer, FlashBlueGPCR Scintillating Beads) in a final volume of 80 μl for 4 hours at room temperature, protected from light. Non-specific binding was determined in the presence of 10 μM clobenpropit. Radioligand bound to receptor, and therefore in proximity to the scintillation beads, was measured using a MicroBeta scintillation counter.

[1] = molecular target: T2, rat histamine H3 receptor (Rattus norvegicus, UniProt Q9QYN8); test: Rat H3 radioligand binding ([3H]-N-alpha-methylhistamine, SPA); conditions: membranes of CHO-A3 cells expressing rat H3; [3H]-N-alpha-methylhistamine; read-out: Rat H3 Ki
T2 construct: encoding the entire 445-amino-acid rat histamine H3 receptor; expressed in transfected cells
T2 sequence (Q9QYN8 whole entry): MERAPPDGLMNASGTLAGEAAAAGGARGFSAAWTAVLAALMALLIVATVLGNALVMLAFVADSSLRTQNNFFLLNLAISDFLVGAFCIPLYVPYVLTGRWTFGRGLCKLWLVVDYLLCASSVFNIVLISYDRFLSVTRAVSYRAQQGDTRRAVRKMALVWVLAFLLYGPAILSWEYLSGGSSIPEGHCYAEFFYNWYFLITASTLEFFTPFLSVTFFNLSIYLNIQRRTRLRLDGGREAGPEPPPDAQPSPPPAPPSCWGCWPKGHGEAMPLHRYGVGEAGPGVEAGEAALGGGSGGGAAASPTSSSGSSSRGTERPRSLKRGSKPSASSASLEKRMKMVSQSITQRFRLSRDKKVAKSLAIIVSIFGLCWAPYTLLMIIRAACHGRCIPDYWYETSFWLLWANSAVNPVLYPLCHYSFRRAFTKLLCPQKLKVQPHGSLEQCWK
Excerpt: The rat H3 receptor cDNA was PCR amplified from reverse-transcribed RNA pooled from rat thalamus, hypothalamus, striatum and prefrontal cortex with a sequence corresponding to by #338-1672 of Genbank file #NM_053506, encoding the entire 445-amino-acid rat histamine H3 receptor. This was engineered into the pIRES-neo3 mammalian expression vector, which was stably transfected into the CHO-A3 cell line (Euroscreen, Belgium), followed by clonal selection by limiting dilution. Cells were harvested and cell pellets were frozen (−80° C.). Cell pellets were resuspended in 5 mM Tris-HCl, pH 7.5 with 5 nM EDTA and a cocktail of protease inhibitors (Complete Protease Inhibitor Tablets, Roche Diagnostics). Cells were disrupted using a polytron cell homogenizer and the suspension was centrifuged at 1000×g for 10 minutes at 4° C. The pellet was discarded and the supernatant centrifuged at 40,000×g for 30 min at 4° C. This membrane pellet was washed in membrane buffer containing 50 mM Tris-HCl, pH 7.5 with 0.6 mM EDTA, 5 mM MgCl2 and protease inhibitors, recentrifuged as above and the final pellet resuspended in membrane buffer plus 250 mM sucrose and frozen at −80° C.
as §1

Ki (human H3 receptor) [nM] | Ki [1] [nM] | melting point [°C] | SMILES
0.1 to 100 | 0.1 to 100 | 125 to 133 | CC(=O)N1CCN(CC(=O)c2ccc(OCCCN3CCC[C@H]3C)cc2)CC1 [Example 63, 2-(4-Acetyl-piperazin-1-yl)-1-{4-[3-((R)-2-methyl-pyrrolidin-1-yl)-propoxy]-phenyl}-ethanone]
0.1 to 100 | 0.1 to 100 | 145 to 150 | C[C@@H]1CCCN1CCCOc1ccc(C(=O)CN2CCN(c3ccccc3)CC2)cc1 [Example 91, 1-{4-[3-((R)-2-Methyl-pyrrolidin-1-yl)-propoxy]-phenyl}-2-(4-phenyl-piperazin-1-yl)-ethanone]
> 1000 | > 1000 | 117 to 120 | CC1(C)CCCN1CCCOc1ccc(C(=O)CN2CCOCC2)cc1 [Example 88, 1-{4-[3-(2,2-Dimethyl-pyrrolidin-1-yl)-propoxy]-phenyl}-2-morpholin-4-yl-ethanone]
> 1000 | – | 240 | CC(=O)N1CCN(CCCOc2ccc(C(=O)C(C)N3CCOCC3)cc2)CC1 (stereo not shown) [Example 50, 1-{4-[3-(4-Acetyl-piperazin-1-yl)-propoxy]-phenyl}-2-morpholin-4-yl-propan-1-one]
0.1 to 100 | 0.1 to 100 | 152 to 156 | C[C@@H]1CCCN1CCCOc1ccc(C(=O)CN2CCN(C(=O)c3cccs3)CC2)cc1 [Example 80, 1-{4-[3-((R)-2-Methyl-pyrrolidin-1-yl)-propoxy]-phenyl}-2-[4-(thiophene-2-carbonyl)-piperazin-1-yl]-ethanone]
0.1 to 100 | 0.1 to 100 | 65 to 70 | CCC(=O)N1CCN(CC(=O)c2ccc(OCCCN3CCC[C@H]3C)cc2)CC1 [Example 144, 1-[4-(2-{4-[3-((R)-2-Methyl-pyrrolidin-1-yl)-propoxy]-phenyl}-2-oxo-ethyl)-piperazin-1-yl]-propan-1-one]
0.1 to 100 | 0.1 to 100 | 220 to 226 | CC(C)C(=O)N1CCN(CC(=O)c2ccc(OCCCN3CCC[C@H]3C)cc2)CC1 [Example 77, 2-Methyl-1-[4-(2-{4-[3-((R)-2-methyl-pyrrolidin-1-yl)-propoxy]-phenyl}-2-oxo-ethyl)-piperazin-1-yl]-propan-1-one]
0.1 to 100 | 0.1 to 100 | 140 | C[C@@H]1CCCN1CCCOc1ccc(C(=O)CN2CCN(c3ccccc3)CC2)cc1F [Example 143, 1-{3-Fluoro-4-[3-((R)-2-methyl-pyrrolidin-1-yl)-propoxy]-phenyl}-2-(4-phenyl-piperazin-1-yl)-ethanone]
0.1 to 100 | 0.1 to 100 | 118 to 130 | C[C@@H]1CCCN1CCCOc1ccc(C(=O)CN2CCN(C(=O)N3CCCC3)CC2)cc1 [Example 75, 1-{4-[3-((R)-2-Methyl-pyrrolidin-1-yl)-propoxy]-phenyl}-2-[4-(pyrrolidine-1-carbonyl)-piperazin-1-yl]-ethanone]
> 1000 | – | 238 | O=C(CN1CCOCC1)c1ccc(OCCCN2CCN3CCC[C@H]3C2)cc1 [Example 51, 1-{4-[(S)-3-(Hexahydro-pyrrolo[1,2-a]pyrazin-2-yl)-propoxy)-phenyl}-2-morpholin-4-yl-ethanone]
0.1 to 100 | 0.1 to 100 | 113 to 128 | CC(=O)N1CCN(CC(=O)c2ccc(OCCCN3CCC[C@H]3C)c(Cl)c2)CC1 [Example 135, 2-(4-Acetyl-piperazin-1-yl)-1-{3-chloro-4-[3-((R)-2-methyl-pyrrolidin-1-yl)-propoxy]-phenyl}-ethanone]
0.1 to 100 | 0.1 to 100 | 161 to 166.5 | Cc1cc(C(=O)CN2CCN(C(=O)C3CCCCC3)CC2)ccc1OCCCN1CCC[C@H]1C [Example 148, 2-(4-Cyclohexanecarbonyl-piperazin-1-yl)-1-{3-methyl-4-[3-((R)-2-methyl-pyrrolidin-1-yl)-propoxy]-phenyl}-ethanone]
0.1 to 100 | 0.1 to 100 | 232 | C[C@@H]1CCCN1CCCOc1ccc(C(=O)CN2CCN(C(=O)C3CCCCC3)CC2)cc1F [Example 146, 2-(4-Cyclohexanecarbonyl-piperazin-1-yl)-1-{3-fluoro-4-[3-((R)-2-methyl-pyrrolidin-1-yl)-propoxy]-phenyl}-ethanone]
0.1 to 100 | 101 to 500 | 206 to 215 | Cc1cc(OCCCN2CCCCC2)ccc1C(=O)CN1CCOCC1 [Example 72, 1-[2-Methyl-4-(3-piperidin-1-yl-propoxy)-phenyl]-2-morpholin-4-yl-ethanone]
– | – | 296 to 298 | CC(C)N1CCC(Oc2ccc(C(=O)CN3CCOCC3)cc2)CC1 (as salt: hydrochloride) [Example 45, 1-[4-(1-Isopropyl-piperidin-4-yloxy)-phenyl]-2-morpholin-4-yl-ethanone]
0.1 to 100 | 0.1 to 100 | 166 to 168 | C[C@@H]1CCCN1CCCOc1ccc(C(=O)CN2CCCc3ccccc32)cc1 [Example 108, 2-(3,4-Dihydro-2H-quinolin-1-yl)-1-{4-[3-((R)-2-methyl-pyrrolidin-1-yl)-propoxy]-phenyl}-ethanone]
0.1 to 100 | 101 to 500 | 168 | C[C@@H]1CCCN1CCCOc1c(Cl)cc(C(=O)CN2CCN(C(=O)C3CCCCC3)CC2)cc1Cl [Example 99, 2-(4-Cyclohexanecarbonyl-piperazin-1-yl)-1-{3,5-dichloro-4-[3-((R)-2-methyl-pyrrolidin-1-yl)-propoxy]-phenyl}-ethanone]
– | – | 222 to 224 | CC(C)OC(=O)N1CCN(CC(=O)c2ccc(OCCCN3CCC[C@H]3C)cc2)CC1 [Example 158, 4-(2-{4-[3-((R)-2-Methyl-pyrrolidin-1-yl)-propoxy]-phenyl}-2-oxo-ethyl)-piperazine-1-carboxylic acid isopropyl ester]
> 1000 | – | 254 | CC(C(=O)c1ccc(OCCCN2CCC(F)(F)C2)cc1)N1CCOCC1 (stereo not shown) [Example 56, 1-{4-[3-(3,3-Difluoro-pyrrolidin-1-yl)-propoxy]-phenyl}-2-morpholin-4-yl-propan-1-one]
> 1000 | – | 247 | CC(=O)N1CCN(CCCOc2ccc(C(=O)CN3CCOCC3)cc2)CC1 [Example 49, 1-{4-[3-(4-Acetyl-piperazin-1-yl)-propoxy]-phenyl}-2-morpholin-4-yl-ethanone]
> 1000 | – | 139 to 139.5 | O=C(CN1CCOCC1)c1ccc(OCCCN2Cc3ccccc3C2)cc1 [Example 46, 1-{4-[3-(1,3-Dihydro-isoindol-2-yl)-propoxy)-phenyl}-2-morpholin-4-yl-ethanone]
– | – | 98 to 101 | C[C@@H]1CCCN1CCCOc1ccc(C(=O)CN2CCN(C(=O)c3ccccc3)CC2)c(F)c1 (as salt: fumaric acid salt) [Example 103, 2-(4-Benzoyl-piperazin-1-yl)-1-{2-fluoro-4-[3-((R)-2-methyl-pyrrolidin-1-yl)-propoxy]-phenyl}-ethanone]
– | – | 45 to 50 | C[C@@H]1CCCN1CCCOc1ccc(C(=O)C(C)(C)N2CCOCC2)cc1 (as salt: fumaric acid salt) [Example 54]
0.1 to 100 | 0.1 to 100 | – | C[C@@H]1CCCN1CCCOc1ccc(C(=O)CN2CCC(C(F)(F)F)CC2)cc1 [Example 47, 1-{4-[3-((R)-2-Methyl-pyrrolidin-1-yl)-propoxy]-phenyl}-2-(4-trifluoromethyl-piperidin-1-yl)-ethanone]

SMILES | Ki (human H3 receptor) [nM] | Ki [1] [nM] | melting point [°C]
CC(C(=O)c1ccc(OCCCN2CCOCC2)cc1)N1CCOCC1 (stereo not shown) [Example 48, 2-Morpholin-4-yl-1-[4-(3-morpholin-4-yl-propoxy)-phenyl]-propan-1-one] | > 1000 | – | 258
CC(C(=O)c1ccc(OCCCN2CCCCC2)cc1)N1CCCCC1 (stereo not shown) [Example 19, 2-Piperidin-1-yl-1-[4-(3-piperidin-1-yl-propoxy)-phenyl]-propan-1-one] | 0.1 to 100 | – | > 240
CC(C(=O)c1ccc(OCCCN2CCC[C@@H]2C)cc1)N1CCCCC1 (stereo partly drawn) [Example 20, 1-{4-[3-((S)-2-Methyl-pyrrolidin-1-yl)-propoxy]-phenyl}-2-piperidin-1-yl-propan-1-one] | 0.1 to 100 | – | > 230
